Data published in ChEMBL document CHEMBL1125003, “Synthesis, biological evaluation, and quantitative structure-activity relationship analysis of [beta-(Aroylamino)ethyl]piperazines and -piperidines and [2-[(Arylamino)carbonyl]ethyl]piperazines, -pyrazinopyridoindoles, and -pyrazinoisoquinolines. A new class of potent H1 antagonists” (J Med Chem, 1990).
Values joined by “and” are separate entries in the source; they are usually repeats but may differ in a detail not shown here. Equal values may be shown once.

Molecular target: Histamine H1 receptor (Cavia porcellus, UniProt P31389)
Assay: Antihistaminic activity against Histamine H1 receptor was measured on isolated terminal part of guinea pig ileum
Type: tissue-based

Sequence of Histamine H1 receptor (P31389 whole entry): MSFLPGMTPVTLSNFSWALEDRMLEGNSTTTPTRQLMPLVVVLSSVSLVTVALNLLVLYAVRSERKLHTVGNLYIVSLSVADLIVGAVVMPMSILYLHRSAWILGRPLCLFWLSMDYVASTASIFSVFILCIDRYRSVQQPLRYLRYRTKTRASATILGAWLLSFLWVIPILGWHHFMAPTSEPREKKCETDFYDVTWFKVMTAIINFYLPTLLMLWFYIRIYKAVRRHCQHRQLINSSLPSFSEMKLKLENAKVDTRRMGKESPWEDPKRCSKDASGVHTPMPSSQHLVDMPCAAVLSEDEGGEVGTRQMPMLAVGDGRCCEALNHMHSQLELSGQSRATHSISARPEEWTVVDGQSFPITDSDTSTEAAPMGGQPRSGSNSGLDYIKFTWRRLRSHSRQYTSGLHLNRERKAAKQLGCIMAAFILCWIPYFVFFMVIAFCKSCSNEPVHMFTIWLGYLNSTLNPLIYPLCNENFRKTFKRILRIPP

Row | SMILES | IC50 (read-out: I50 (converted)) | IC50 (read-out: I50)
1 | O=C(CCN1CCN2Cc3ccccc3CC2C1)Nc1ccccc1 (stereo unspecified) | 1340 nM | 
2 | O=C(NCCN1CCC(Cc2ccccc2)CC1)c1ccccc1Br | 661 nM and 673 nM | 
3 | O=C(CCN1CCN2Cc3ccccc3CC2C1)Nc1ccccc1[N+](=O)[O-] (stereo unspecified) | 1320 nM and 1310 nM | 
4 | O=C(CCN1CCN2Cc3[nH]c4ccccc4c3CC2C1)Nc1ccccc1[N+](=O)[O-] (stereo unspecified) | 1740 nM | 
5 | O=C(CCN1CCC(Cc2ccccc2)CC1)Nc1ccccc1Cl | 561 nM and 560 nM | 
6 | ClN1CCN2Cc3[nH]c4ccccc4c3CC2C1 (stereo unspecified) | 206 nM | 
7 | O=C(NCCN1CCN(Cc2ccccc2)CC1)c1ccccc1[N+](=O)[O-] | 1320 nM and 1570 nM | 
8 | O=C(NCCN1CCN(Cc2ccccc2)CC1)c1ccccc1I | 345 nM and 401 nM | 
9 | O=C(CCN1CCN2Cc3[nH]c4ccccc4c3CC2C1)Nc1ccccc1 (stereo unspecified) | 1600 nM | 
10 | O=C(CCN1CCN2Cc3[nH]c4ccccc4c3CC2C1)Nc1ccccc1F (stereo unspecified) | 1280 nM and 1270 nM | 
11 | CCc1ccccc1NC(=O)CCN1CCN(Cc2ccccc2)CC1 | 778 nM and 939 nM | 
12 | O=C(CCN1CCN(Cc2ccccc2)CC1)Nc1ccccc1[N+](=O)[O-] | 1700 nM and 2040 nM | 
13 | O=C(CCN1CCC(Cc2ccccc2)CC1)Nc1ccccc1F | 832 nM and 822 nM | 
14 | O=C(CCN1CCN2Cc3[nH]c4ccccc4c3CC2C1)Nc1ccccc1Cl (stereo unspecified) | 979 nM and 978 nM | 
15 | O=C(CCN1CCN(Cc2ccccc2)CC1)Nc1ccccc1F | 1320 nM and 908 nM | 
16 | O=C(CCN1CCN(Cc2ccccc2)CC1)Nc1ccccc1Cl | 836 nM and 1010 nM | 
17 | O=C(NCCN1CCC(Cc2ccccc2)CC1)c1ccccc1 | 1550 nM and 1740 nM | 
18 | COc1ccccc1C(=O)NCCN1CCN2Cc3[nH]c4ccccc4c3CC2C1 (stereo unspecified) | 364 nM | 

Row | SMILES | IC50 (read-out: I50 (converted)) | IC50 (read-out: I50)
19 | c1ccc2c3c([nH]c2c1)CN1CCNCC1C3 (stereo unspecified) | 535 nM | 
20 | CCc1ccccc1NC(=O)CCN1CCN2Cc3[nH]c4ccccc4c3CC2C1 (stereo unspecified) | 634 nM | 
21 | O=C(NCCN1CCC(Cc2ccccc2)CC1)c1ccccc1Cl | 799 nM and 785 nM | 
22 | Cc1ccccc1C(=O)NCCN1CCC(Cc2ccccc2)CC1 | 1070 nM and 1190 nM | 
23 | O=C(NCCN1CCN(Cc2ccccc2)CC1)c1ccccc1 | 6940 nM and 8500 nM | 
24 | CCc1ccccc1NC(=O)CCN1CCC(Cc2ccccc2)CC1 | 477 nM and 485 nM | 
25 | O=C(CCN1CCC(Cc2ccccc2)CC1)Nc1ccccc1 | 1510 nM and 1520 nM | 
26 | O=C(CCN1CCN(Cc2ccccc2)CC1)Nc1ccccc1 | 2170 nM and 2200 nM | 
27 | O=C(NCCN1CCN(Cc2ccccc2)CC1)c1ccccc1Br | 421 nM and 497 nM | 
28 | O=C(CCN1CCN2Cc3ccccc3CC2C1)Nc1ccccc1Cl (stereo unspecified) | 677 nM and 676 nM | 
29 | CN1CCN2Cc3[nH]c4ccccc4c3CC2C1 (stereo unspecified) | 283 nM | 
30 | O=C(NCCN1CCN(Cc2ccccc2)CC1)c1ccccc1Cl | 696 nM and 838 nM | 
31 | COc1ccccc1NC(=O)CCN1CCC(Cc2ccccc2)CC1 | 965 nM | 963 nM
32 | NN1CCN2Cc3[nH]c4ccccc4c3CC2C1 (stereo unspecified) | 925 nM | 
33 | Cc1ccccc1C(=O)NCCN1CCN(Cc2ccccc2)CC1 | 7120 nM and 7110 nM | 
34 | CCc1ccccc1NC(=O)CCN1CCN2Cc3ccccc3CC2C1 (stereo unspecified) | 525 nM and 523 nM | 
35 | O=[N+]([O-])N1CCN2Cc3[nH]c4ccccc4c3CC2C1 (stereo unspecified) | 375 nM | 
